The structures appear in SMILES notation. Read-outs that look alike come from different tables or passages of the source.

One series concerns guinea pig atria. Kind of series: Organ bath assay, isolated guinea pig atria (rate and force of contraction). The protocol:
Male guinea pigs, 3-4 weeks old, were killed by rapid cervical dislocation without induced anaesthesia. Then, the guinea pigs were dissected to isolate the atria which were immediately mounted vertically in an organ bath containing Krebs-Henseleit solution oxygenated with carbogen.
One gram tension was applied to the atria and the base line continuously adjusted until it was stable for 20 mins. The rate and force of contraction were recorded using Mac Lab equipment.
Test substances in DMSO were assayed to a maximum concentration of 50 μM at a final concentration of 2.5% of DMSO.

In a further series the test system is left atrium rat. Kind of series: Cardiovascular and neuro-effector junction activities: left atrium, rat. The note with it: 10^−7-3 × 10^−5 M. The text has this: (§1) Therefore, further investigation of the physicochemical properties as well as mechanism(s) of action of these substances, including gingerols, is required in relation to cardiotonicity. The mode of action of gingerols as cardiotonic agents has been […] and it was proposed that they act by direct stimulation of the cardiac SR Ca^2+-ATPase. This may load extra calcium into the intracellular stores in the sarcoplasmic reticulum allowing more calcium to be released on stimulation of the heart resulting in increased cardiac contractility. […] The cardiotonic action of 1-(4-hydroxy-3-methoxyphenyl)dodecan-3-ol [3.93] was confirmed from independent studies, carried out at our request as part of our agreement with Johnson & Johnson Research Ltd (J&J), by Prof. James Angus from the University of Melbourne. […] A tachycardial effect of the substance on guinea pig atria was, however, observed at significant rate, 50-60% of isoprenaline Emax and the response was not α- or β-adrenoceptor mediated.
(§2) Cardiovascular and Neuro-effector Junction Activities of Gingerol Analogues

Another series has as its system vas deferens rat. The series is described as follows: Cardiovascular and neuro-effector junction activities: vas deferens, rat. The note with it: 10^−4 M.
Text: as §1, §2

The next series deals with diaphragm rat. Kind of series: Cardiovascular and neuro-effector junction activities: diaphragm, rat. The note with it: 10^−5 M.
Text: as §1, §2

A further series has as its system left atrium guinea pig. The series is described as follows: Cardiovascular and neuro-effector junction activities: left atrium, guinea pig. The protocol: In later studies positive inotropic activity was observed as a 50% increase on driven guinea pig left atria at 10 μM.
No effect was observed on nerve stimulation in atria.
as §1, §2

Another series has as its system cardiac Purkinje fibres. The series is described as follows: Cardiac electrophysiology on Purkinje fibres. Details: species or system dog. The note with it: up to 10 μM. The protocol: Cardiac Electrophysiological Activities of Gingerol and its Analogue
The basic cardiac electrophysiological properties were assessed using cardiac Purkinje fibres obtained from adult mongrel dogs.
Electrophysiology was carried out on dog heart purkinje fibre to test for potential arrhythmia. […] At high concentration (50 μM), however, [8]-gingerol reduced approximate 80% and 50% of action potential duration at 50% and 90% repolarisations respectively. Whereas the analogue reduced 75% and 30% respectively.

For series [1], the system named is capsaicin-sensitive DRG neuronal cells. Kind of series: [Ca^2+]i transients in DRG neuronal cells in culture. Type of series: cell-based, rat. From the text: Effect of Gingerol Analogues Towards Rat Dorsal Root Ganglia
Capsaicin, the pungent component in peppers of the Capsicum genus, family Solanaceae, has the ability to excite a subset of sensory neurons, which include polymodal nociceptors and warm thermoceptors (Fitzgerald, 1983) by opening non-selective cation channels that are permeable to Na^+, K^+, and Ca^2+ (Bevan and Szolcsanyi, 1990). It has been shown that capsaicin evoked a concentration-dependent rise in [Ca^2+]i in cultured dorsal root ganglion neurons. The duration of the elevation of [Ca^2+]i depended on the concentration of capsaicin (Choleswinski, et al., 1993). In this investigation peak [Ca^2+]i transient measurements are used as a model for testing gingerol analogues.
DRG from neonatal (3-5 days old) rat or adult Sprague-Dawley rats were incubated in Hanks CMF saline with 0.05% collagenase and 0.25% trypsin for 25 min at 37° C. Individual cells were obtained by trituration with fire polished Pasteur pipettes of diminishing diameters. Neurones were isolated from the cell suspension in 30% Percoll and then plated on collagen coated coverslips or in 24-well plates, then cultured in neurobasal medium with B27 supplement, 50 ng/ml 2.5 S nerve growth factor, 2 mM 1-glutamine and 100 U/ml penicillin/streptomycin. Cultures were maintained at 37° C. with 5% CO2. 30% Percoll increases the percentage of capsaicin-sensitive DRG neurones up to 70%. For peak [Ca^2+]i transients measurements, cells on coverslips were incubated with 5 μM Fura-2 AM for 30 min at 37° C. The coverslips were then mounted on a chamber attached to a fast sample application perfusion system which allows changing solutions in the second range. Recordings were made on the stage of a Nikon Diaphot inverted microscope fitted with a Nikon 40×Fluo (NA 0.85) DL Ph3 or 40×Fluo (NA 1.3) oil objective. [Ca^2+]i was calculated from dual excitation wavelength (340/380 nm) fluorescence measurements following an intracellular calibration procedure by the Grynkiewicz equation, using MCID M2/M4 v.3.0 (Imaging Res. Inc.) software. Cells were continuously perfused with a solution consisting of 140 mM NaCl, 2 mM CaCl2, 5 mM KCl, 20 mM HEPES, 10 mM glucose, pH 7.4. To study KCl evoked depolarisation, 50 mM NaCl was replaced by equimolar KCl. Cytoplasmic localisation of Fura-2 was tested with the Mn^2+ quenching technique (Dedov and Roufogalis, 1998). All experiments were performed at room temperature (20-23° C.).
Typical changes in [Ca^2+]i upon depolarisation were evoked by 50 mM KCl and by application of 1 μM capsaicin; both were applied for 30 sec. Capsaicin-evoked peak [Ca^2+]i transients are characterised by a fast rise and long-steady state [Ca^2+]i clearance from the cytoplasm. In capsaicin-sensitive cells the half-time of cytoplasmic Ca^2+ clearance was proportional to the amplitudes of peak [Ca^2+]i transients.
To examine the effect of gingerol derivatives, one or several compounds in succession at a concentration of 10 μM were applied for 1 min to the DRG neuronal cells followed by washing out for 4 min with physiological solution. To the capsaicin-sensitive cells, 10 μM capsaicin and 50 mM KCl were applied, respectively, to confirm the viability of the cells. In addition, morphological appearances of the cells were also examined at the end of experiment. […]

The test system of a further series is right atrium rat. The series is described as follows: Cardiovascular and neuro-effector junction activities: right atrium, rat. The note with it: 3 × 10^−7-3 × 10^−6 M, with propranolol present.
Text: as §1, §2

In another series the test system is right atrium guinea pig. The series is described as follows: Cardiovascular and neuro-effector junction activities: right atrium, guinea pig. Particulars: 10^−7-3 × 10^−5 M; not blocked by praz., prop.
Text: as §1, §2

For a further series, the system named is rat mesenteric artery. The series is described as follows: Vasodilation on rat mesenteric artery. From the text: The proposed mechanism of neuropeptide release by 1-(4-hydroxy-3-methoxyphenyl)dodecan-3-ol, similar to that of capsaicin, was supported by studies in blood vessels. […] This contrasts with capsaicin which has similar activity in Guinea pig atria (force and rate) and relaxing rat mesenteric artery.

Series [2] deals with rabbit platelet-rich plasma. The series is described as follows: Antiplatelet aggregation screen with arachidonic acid as substrate. Type of series: cell-based.
Series [3] has as its system brine shrimp (Artemia salina Leach). The series is described as follows: Brine shrimp assay. It counts as in vivo. Particulars: for LC50: 24 hours, 2% DMSO. The text has this:
Toxicity—Brine Shrimp Assay
The brine shrimp assay procedure determines LC50 values of active compounds. Activities of a broad range of known active compounds are manifested as toxicity to brine shrimp (Artemia salina Leach). There are many applications of the assay including analysis of toxic substances, anaesthetics, morphine-like substances and cocarcinogenicity of phorbol esters.
DMSO (dimethyl sulfoxide) was the solvent of choice because of its good solubilising properties and also because the substances used in the ATPase inhibition assays were already prepared with DMSO.
The method for testing solvent toxicity used was basically that reported by J L McLaughlin in Methods of Plant Biochemistry (1991), vol. 6 (K Hostettman, ed.), Academic Press, London, 1-32. DMSO solutions of the substances to be tested were added directly to the vials containing the brine shrimp. As the concentration of DMSO is that we wished to use was higher than the recommended 1% v/v testing of the toxicity of the DMSO was therefore necessary. The concentrations of DMSO tested on the shrimp, along with the results from the assay which was done in duplicate are listed below.
Brine shrimp toxicity was assayed, except for some minor modifications, according to the method of McLaughlin et al as reported in Brine Shrimp: A convenient bioassay for active plant constituents, B N Meyer, N R Ferrigni, J E Putnam, L B Jacobsen, D E Nichols and J L McLaughlin in Planta Medica (1982), 45, 31-34 and Crown gall tumours on potato discs and brine shrimp lethality: Two simple bioassays for higher plant screening and fractionation. J L McLaughlin. Methods of Plant Biochemistry (1991), vol. 6 (K Hostettman, ed.), Academic Press, London, 1-32. Ten shrimp were transferred to each of the vials and the volume adjusted to 4.9 mL. Each dose was performed in triplicate, including the control. In quick succession, the appropriate volume of additional DMSO for each dose, required to achieve a final concentration of 2%, was added before the appropriate volume of test solution. The vials were gently mixed and the time noted. After 24 hours, the number of survivors were counted and % mortality was determined. The test compounds were assayed at concentrations of 100 μM, 25 μM, 5 μM, 1 μM and 0.2 μM (and where appropriate concentrations of 0.04 μM and 0.008 μM).
The brine shrimp were able to survive without food in the vials over the 24 hour period and were therefore not fed.
The dose-response curves were constructed using the Sigmaplot computer program and the LC50 value was calculated from the intersection point of the curve and the 50% mortality line. The LC50 values were expressed in both μM and μg/mL.
For substances with low toxicity, the greater sign “>” indicated the highest concentration at which the assay was carried out as precipitation of the substances occurred above that concentration.

Series [4] has the same test system. The note with it: in vivo; cited from earlier work.

In the case of `CCCCCCCC(O)CC(=O)c1ccc(O)c(OC)c1` (stereo not shown) [3-hydroxy-1-(4-hydroxy-3-methoxyphenyl)decan-1-one], in the series with guinea pig atria (assayed to a maximum of 50 μM), the “FORCE OF CONTRACT^n (inotropic activity), result in words” value was “negative inotropic activity” and the “HEART RATE (chronotropic activity), result in words” value is “negative chronotropic activity”. Moreover, the “effect on left atrium rat” value in the series with left atrium rat is recorded as “no change”. Also, the “effect on vas deferens rat” value with vas deferens rat is given as “no effect”. In addition, the “effect on diaphragm rat” value in the series on diaphragm rat is given as “no effect”. Further, in the series on left atrium guinea pig (up to 30 μM), the “effect on isoprenaline response, left atrium guinea pig” value is “no effect”. In the series on cardiac Purkinje fibres (listed as 3-hydroxy-1-(4-hydroxy-3-methoxyphenyl)decanone), the “effect on rate of depolarization, amplitude and duration of action potential (50% and 90%)” value is reported as “only a small effect”. In addition, in the series with cardiac Purkinje fibres (listed as 3.92), the “effect on rate of depolarization, amplitude and duration of action potential (50% and 90%)” value was “insignificant effect”. The “Peak [Ca^2+]i (Average ± SD)” value in series [1] (10 μM applied for 1 min, 2 mM Ca^2+) was determined as 0 nM.

On to `CCCCCCCCCC(O)CCc1ccc(O)c(OC)c1` (stereo not shown) [1-(4-hydroxy-3-methoxyphenyl)dodecan-3-ol], for which, in the series with guinea pig atria, the “potency of one enantiomer relative to the other in increasing force of contraction in guinea pig atria” value is on record as 100 fold. For the same molecule, in the series with guinea pig atria (@ 10 (μM)), the “FORCE OF CONTRACT^n, ↑ increase” value is “↑108% @ 10”. The “effect on rate, right atrium rat” value in the series with right atrium rat is listed as “tachycardia”. Further, in the series with right atrium guinea pig, the “effect on rate, right atrium guinea pig” value was “tachycardia”. Moreover, the “arrhythmia on guinea pig driven left atria” value with left atrium guinea pig (1 μM) was “followed by arrhythmia”. Further, the “inotropic effect, % isopren. max., left atrium guinea pig” value with left atrium guinea pig (10^−6-3 × 10^−5 M) is given as “˜20%”. In the series with left atrium guinea pig (10^−6-3 × 10^−5 M (not in rat)), the “inotropism, left atrium guinea pig” value is on record as “inotropic”. The “potency (EC50) for relaxation of mesenteric artery relative to inotropic effect in guinea pig atrium” value with rat mesenteric artery is reported as 100 fold. Also, the “relaxing vasopressin-contracted rat mesenteric small arteries” value in the series on rat mesenteric artery (10^−8 to 10^−6 M, 200-300 μm diameter) is reported as “very potent”. In series [2], the “platelet function via adenosine diphosphate or thromboxane A mechanisms” value is listed as “did not affect”. Besides, the “antiplatelet aggregation potency relative to indomethacin” value in series [2] (arachidonic acid as substrate, listed as 3-hydroxy-1-(4-hydroxy-3-methoxyphenyl)dodecane) is given as “three time more potent than the indomethacin reference compound”. In addition, the “toxicity towards brine shrimp, in words” value in [3] (in vivo) is reported as “low toxicity”. Moreover, the “evoked [Ca^2+]i transients in Ca^2+-free medium or with ruthenium red” value in [1] (Ca^2+-free medium or ruthenium red (1 μM)) is on record as “abolished or greatly diminished”.

What is called LC50 is the concentration that kills 50% of the test population. Turning to `COc1cc([C@@H]2c3cc4c(cc3[C@H](O)[C@H]3COC(=O)[C@H]23)OCO4)cc(OC)c1OC` [podophyllotoxin, reference compound], the LC50 is 1.6 µg/mL in series [3] and 3.8 µM in series [3] (read-out: LC50). Also, the “LC50 determined by Meyer et al. (1982)” value in [4] was “(2.4) μg/ml”.

Source of the values: patent US6518315B1, “Medicinal uses of phenylaikanols and derivatives” (The University of Sydney, priority 1997, dated 2003).
